Data on 29 compounds can be found in patent US20080090834A1, “SELECTIVE AZOLE PDE10A INHIBITOR COMPOUNDS” (Pfizer Inc, priority 2006, published 2008).

Where a name gives a salt, the structure may show the parent alone.

A word on the IC50: it is the point on the concentration scale where inhibition reaches its midpoint. A lower IC50 goes with higher potency.

The test has as its target T1, cloned rat PDE10A full-length enzyme (Rattus norvegicus, UniProt Q9QYJ6).
T1 construct: cloned rat PDE10A full-length enzyme grown in transfected Sf9 insect cells; made in house; host or cells: Sf9 insect cells
T1 sequence (Q9QYJ6 1-794): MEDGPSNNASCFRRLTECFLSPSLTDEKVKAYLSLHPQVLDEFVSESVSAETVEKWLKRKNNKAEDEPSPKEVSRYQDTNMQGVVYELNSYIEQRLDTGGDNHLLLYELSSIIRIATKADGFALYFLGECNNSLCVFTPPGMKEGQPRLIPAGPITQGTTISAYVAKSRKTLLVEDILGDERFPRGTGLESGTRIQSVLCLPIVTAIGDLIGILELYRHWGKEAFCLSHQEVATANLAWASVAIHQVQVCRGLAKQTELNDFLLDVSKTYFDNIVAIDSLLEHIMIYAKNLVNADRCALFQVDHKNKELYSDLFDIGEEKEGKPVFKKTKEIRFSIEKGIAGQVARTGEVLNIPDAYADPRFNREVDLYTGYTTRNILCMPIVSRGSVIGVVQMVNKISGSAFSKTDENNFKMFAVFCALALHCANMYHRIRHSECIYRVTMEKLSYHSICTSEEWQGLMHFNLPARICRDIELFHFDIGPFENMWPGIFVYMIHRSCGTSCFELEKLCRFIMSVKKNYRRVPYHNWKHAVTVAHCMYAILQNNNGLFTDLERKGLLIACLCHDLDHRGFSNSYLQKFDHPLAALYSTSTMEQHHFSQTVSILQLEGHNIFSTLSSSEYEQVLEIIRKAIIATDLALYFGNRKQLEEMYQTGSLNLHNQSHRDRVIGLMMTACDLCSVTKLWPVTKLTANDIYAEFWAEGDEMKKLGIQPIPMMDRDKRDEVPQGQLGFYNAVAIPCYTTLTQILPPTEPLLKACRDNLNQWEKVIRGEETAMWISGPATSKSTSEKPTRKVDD
As to the kind of experiment: PDE10 enzyme inhibition, [3H]cAMP scintillation proximity assay. Format: biochemical. As to conditions: rat PDE10A from Sf9 cells, 20 nM [3H]cAMP, SPA beads, 20 minute incubation at room temperature. Here is the method: Compounds of the present invention were evaluated for ability to inhibit PDE10 enzyme with the following Assay procedure
The enzyme used in the procedure was cloned rat PDE10A full-length enzyme grown in transfected Sf9 insect cells. Cloned enzyme was extracted from homogenized cell pellets and stored frozen in homogenizing buffer until use. Compounds were initially dissolved in 100% DMSO and diluted out in 20 percent DMSO/water solution. Final concentration of DMSO in the assay was 2 percent as compounds were tested in triplicate in 96 well plates. Compound solution was placed in well, then tritiated cyclic AMP (New England Nuclear NET275) in assay buffer was added at 20 nM concentration. Then PDE10 enzyme in assay buffer of 50 mM Tris, 8.3 mM MgCl2, pH 7.5 at room temperature was added for a final assay volume of 100 ul. Concentration of enzyme was added such that less than 10 percent of [3H]cAMP at 20 nM was converted to detectable end product, [3H]AMP bound to SPA (Scintillation Proximity Assay) beads. Phosphodiesterase scintillation proximity yttrium silicate beads from Amersham Biosciences (RPNQ0150) were added (50 ul at 20 mg/ml) after a 20 minute incubation at room temperature. Zinc sulphate as a component of the beads stops the phosphodiesterase reaction.
Non-specific binding to SPA beads was determined by addition of 1 uM papaverine. Total conversion by enzyme without inhibitor of [3H]cAMP to [3H]AMP, as detected by scintillation of [3H]AMP bound to yttrium silicate beads, was determined in the presence of vehicle-only.
For orientation: SPA uses beads or plates that emit light when radiolabelled molecules are held near them.
Turning to “3-(4-(5-(4-methoxyphenyl)-2-(thiophen-2-yl)-1H-imidazol-4-yl)phenyl)-3H-imidazol[4,5-b]pyridine and 1-(4-(5-(4-methoxyphenyl)-2-(thiophen-2-yl)-1H-imidazo[4,5-b]pyridine [Example 101]”, the IC50 worked out at 0.708 nM.

Consider `c1ccc(-c2cn(-c3cccnc3)c(-c3ccc(-n4cnc5ncccc54)cc3)n2)nc1` (single isomer, unassigned) [Example 46, 1-(4-(4-(pyridin-2-yl)-1-(pyridin-3-yl)-1H-imidazol-2-yl)phenyl)-1H-imidazo[4,5-b]pyridine bis-trifluororoacetic acid salt], for which the IC50 came to 231 nM.

Regarding `Cc1ccc(-n2cc(-c3ccccn3)nc2-c2ccc(-n3cnc4ncccc43)cc2)cn1` (single isomer, unassigned) [Example 48], inhibition was half-maximal at 63.7 nM (IC50). Compared with the last compound, the IC50 is about 3.6-fold lower.

Regarding `Cc1ccc(-n2cc(-c3ccccn3)nc2-c2ccc(-n3cnc4cccnc43)cc2)cn1` (single isomer, unassigned) [Example 49, 3-(4-(1-(6-methylpyridin-3-yl)-4-(pyridin-2-yl)-1H-imidazol-2-yl)phenyl)-3H-imidazo[4,5-b]pyridine], the IC50 was 5.5 nM.

In turn, `COc1ccc(-n2cc(-c3cccs3)nc2-c2ccc(-n3ccc4cccnc43)cc2)cc1` [Example 1] returned an IC50 of 3.35 nM.

`COc1ccc(-n2cc(-c3nccs3)nc2-c2ccc(-n3ccc4cccnc43)cc2)cc1` [Example 2, 1-(4-(1-(4-methoxyphenyl)-4-(thiazol-2-yl)-1H-imidazol-2-yl)phenyl)-1H-pyrrolo[2,3-b]pyridine] registered an IC50 of 156 nM. This IC50 lies about 47-fold higher than the previous one.

With `c1cnc2c(c1)ccn2-c1ccc(-c2nc(-c3nccs3)cn2-c2nccs2)cc1` [Example 3, 1-(4-(1,4-di(thiazol-2-yl)-1H-imidazol-2-yl)phenyl)-1H-pyrrolo[2,3-b)pyridine], the IC50 was found to be 1610 nM. Compared with the last compound, the IC50 is about 10-fold higher.

On to `c1ccc(-c2cn(-c3cncnc3)c(-c3ccc(-n4ccc5cccnc54)cc3)n2)nc1` [Example 4], for which the IC50 is 13.6 nM.

`Cc1cc(-n2cc(-c3ccccn3)nc2-c2ccc(-n3ccc4cccnc43)cc2)ccn1` [Example 5, 1-(4-(1-(2-methylpyridin-4-(pyridin-2-yl)-1H-imidazol-2-yl)-1H-imidazol-2-yl)phenyl)-1H-pyrrolo[2,3-b]pyridine] showed an IC50 of 4.62 nM. This IC50 lies about 2.9-fold lower than the previous one.

For the compound `Cc1ccc(-n2cc(-c3ccccn3)nc2-c2ccc(-n3ccc4cccnc43)cc2)cn1` [Example 6, 1-(4-(1-(6-methylpyridine-3-yl)-4-(pyridin-2-yl)-1H-imidazol-2-yl)phenyl)-1H-pyrrolo[2,3-b]pyridine], it took 3.21 nM to reach half-maximal inhibition (IC50).

In turn, `c1ccc(-c2cn(-c3ccc(-n4ccnc4)nc3)c(-c3ccc(-n4ccc5cccnc54)cc3)n2)nc1` [Example 8, 1-(4-(1-(6-(1H-imidazol-1-yl)pyridin-3-yl)-4-(pyridin-2-yl)-1H-imidazol-2-yl)phenyl)-1-H-pyrrolo[2,3-b]pyridine] registered an IC50 of 1.48 nM.

`COc1ccc(-n2cc(-c3ccccn3)nc2-c2ccc(-n3ccc4cccnc43)cc2)cn1` [Example 9, 1-(4-(1-(6-methoxypyridin-3-yl)-4-(pyridin-2-yl)-1H-imidazol-2-yl)phenyl)-1H-pyrrolo[2,3-b]pyridine] registered an IC50 of 3.07 nM.

The compound `CN(C)CCc1cn(-c2ccc(-c3nc(-c4ccccn4)cn3-c3cccnc3)cc2)c2ncccc12` [Example 10, N,N-dimethyl-2-(1-(4-(4-(pyridin-2-yl)-1-(pyridin-3-yl)-1H-imidazol-2-yl)phenyl)-1H-pyrrolo[2,3-b]pyridin-3-yl)ethanamine] registered an IC50 of 8.99 nM.

Consider `Fc1cc(-n2ccc3cccnc32)ccc1-c1nc(-c2ccccn2)cn1-c1cccnc1` [Example 11, 1-(3-fluoro-4-(4-(pyridin-2-yl)-1-(pyridin-3-yl)-1H-imidazol-2-yl)phenyl)-1H-pyrrolo[2,3-b]pyridine], for which the IC50 was determined as 4.14 nM.

With `Cc1ccc(-n2cc(-c3ccccn3)nc2-c2ccc(-n3ccc4cccnc43)c(C)c2)cn1` [Example 12, 1-(2-methyl-4-(1-(6-methylpyridin-3-yl)-4-(pyridin-2-yl)-1H-imidazol-2-yl)phenyl)-1H-pyrrolo[2,3-b]pyridine], inhibition was half-maximal at 31.7 nM (IC50).

Compound `Cc1ccc(-n2cc(-c3ccccn3)nc2-c2ccc(-n3ccc4cccnc43)cc2C)cn1` [Example 13, 1-(3-methyl-4-(1-(6-methylpyridin-3-yl)-4-(pyridin-2-yl)-1H-imidazol-2-yl)phenyl)-1H-pyrrolo[2,3-b]pyridin] registered an IC50 of 37.1 nM.

`Cc1ccc(-n2cc(-c3cccc[n+]3[O-])nc2-c2ccc(-n3ccc4cccnc43)cc2)c[n+]1[O-]` [Example 15] registered an IC50 of 16.4 nM.

In the case of `Cc1ccc(-n2cc(-c3cccc[n+]3[O-])nc2-c2ccc(-n3ccc4cccnc43)cc2)cn1` [Example 16, 1-(4-(1-(6-methylpyridin-3-yl)-4-(1-oxido-pyridin-2-yl)-1H-imidazol-2-yl)phenyl)-1H-pyrrolo[2,3-b]pyridine], the IC50 came out at 12.3 nM. This IC50 and that of the compound before are within 1.5-fold of each other.

In the case of `c1ccc(-c2cn(-c3cccnc3)c(-c3ccc(-n4c5c(c6cccnc64)CSCC5)cc3)n2)nc1` [Example 17, 9-[4-(4-pyridin-2-yl-1-pyridin-3-yl-1H-imidazol-2-yl)phenyl]-5,7,8,9-tetrahydrothiopyrano[3′,4′,4,5]pyrrolo[2,3-b]pyridine], 0.912 nM corresponded to half-maximal inhibition (IC50).

`CN(C)Cc1cn(-c2ccc(-c3nc(-c4ccccn4)cn3-c3cccnc3)cc2)c2ncccc12` [Example 18, N,N-dimethyl(1-(4-(4-(pyridin-2-yl)-1-(pyridin-3-yl)-1H-imidazol-2-yl)phenyl)-1H-pyrrolo[2,3-b]pyridin-3-yl)methanamine TFA salt] yielded an IC50 of 24.3 nM. This IC50 lies about 27-fold higher than the previous one.

`c1ccc(-c2cn(-c3cccnc3)c(-c3ccc(-n4c5ccccc5c5cccnc54)cc3)n2)nc1` [Example 19, 9-(4-(4-(pyridin-2-yl)-1-(pyridin-3-yl)-1H-imidazol-2-yl)phenyl)-9H-pyrido[2,3-b]indole] came in with an IC50 of 0.992 nM.

For `Cc1ccc(-n2cc(-c3ccccn3)nc2-c2ccc(-n3ccc4cc(Cl)cnc43)cc2)cn1` [Example 20, 5-chloro-1-(4-(4-pyridin-2-yl)-1-(6-methylpyridin-3-yl-1H-imidazol-2-yl)phenyl)-1H-pyrrolo[2,3-b]pyridine], the concentration for half-maximal inhibition (IC50) was under 2.72 nM.

`Cc1ccc(-n2cc(-c3ccccn3)nc2-c2ccc(-n3ccc4cc(F)cnc43)cc2)cn1` [Example 21, 5-fluoro-1-(4-(1-(6-methylpyridin-3-yl)-4-(pyridin-2x-yl)-1H-imidazol-2-yl)phenyl)-1H-pyrrolo-[2,3-b]pyridine] yielded an IC50 of 2.82 nM.

Regarding `Cc1cnc2c(ccn2-c2ccc(-c3nc(-c4ccccn4)cn3-c3ccc(C)nc3)cc2)c1` [Example 22, 5-methyl-1-(4-(1-[6-methylpyridin-3-yl)-4-(pyridin-2-yl)-1H-imidazol-2-yl)phenyl)-1H-pyrrolo[2,3-b]pyridine], the IC50 was 12.1 nM. Compared with the last compound, the IC50 is about 4.3-fold higher.

Compound `C#Cc1cc(C)cnc1N` [Example 22A, 3-ethynyl-5-methylpyridin-2-amine] came in with an IC50 of 3.35 nM.

`c1ccc(-n2cc(-c3nccs3)nc2-c2ccc(-n3ccc4cccnc43)cc2)nc1` [Example 24] returned an IC50 of 13.4 nM. Compared with the last compound, the IC50 is about 4-fold higher.

`c1cnc2c(c1)ccn2-c1ccc(-c2nc(-c3nccs3)cn2-c2ccncc2)cc1` [Example 25, 1-(4-(1-(pyridin-4-yl)-4-(thiazol-2-yl)-1H-imidazol-2-yl)phenyl)-1H-pyrrolo[2,3-b]pyridine] gave an IC50 of 4.46 nM.

Compound `c1cnc2c(c1)ccn2-c1ccc(-c2nc(-c3nccs3)cn2-c2cncnc2)cc1` [Example 26, 1-(4-(1-(pyrimidin-5-yl)-4-(thiazol-2-yl)-1H-imidazol-2-yl)phenyl)-1H-pyrrolo[2,3-b]pyridine] gave an IC50 of 4.4 nM.

Consider `Cc1ccc(-n2cc(-c3nccs3)nc2-c2ccc(-n3ccc4cccnc43)cc2)cn1` [Example 27, 1-(4-(1-(6-methylpyridin-3-yl)-4-(thiazol-2-yl)-1H-imidazol-2-yl)phenyl)-1H-pyrrolo[2,3-b]pyridine], for which the IC50 was 1.48 nM. Against the preceding compound, the IC50 is about 3-fold lower.
